Among the data in patent US9382197B2, “Substituted hydroxamic acids and uses thereof” (Millennium Pharmaceuticals, Inc., priority 2010, dated 2016) are IC50 values, retold here.

What is called IC50 is the midpoint of a concentration-inhibition curve.

One experiment concerns the target T1, purified human HDAC6 (Homo sapiens, UniProt Q9UBN7).
T1 construct: purchased BPS Bioscience 5006
T1 sequence (Q9UBN7 1-1215): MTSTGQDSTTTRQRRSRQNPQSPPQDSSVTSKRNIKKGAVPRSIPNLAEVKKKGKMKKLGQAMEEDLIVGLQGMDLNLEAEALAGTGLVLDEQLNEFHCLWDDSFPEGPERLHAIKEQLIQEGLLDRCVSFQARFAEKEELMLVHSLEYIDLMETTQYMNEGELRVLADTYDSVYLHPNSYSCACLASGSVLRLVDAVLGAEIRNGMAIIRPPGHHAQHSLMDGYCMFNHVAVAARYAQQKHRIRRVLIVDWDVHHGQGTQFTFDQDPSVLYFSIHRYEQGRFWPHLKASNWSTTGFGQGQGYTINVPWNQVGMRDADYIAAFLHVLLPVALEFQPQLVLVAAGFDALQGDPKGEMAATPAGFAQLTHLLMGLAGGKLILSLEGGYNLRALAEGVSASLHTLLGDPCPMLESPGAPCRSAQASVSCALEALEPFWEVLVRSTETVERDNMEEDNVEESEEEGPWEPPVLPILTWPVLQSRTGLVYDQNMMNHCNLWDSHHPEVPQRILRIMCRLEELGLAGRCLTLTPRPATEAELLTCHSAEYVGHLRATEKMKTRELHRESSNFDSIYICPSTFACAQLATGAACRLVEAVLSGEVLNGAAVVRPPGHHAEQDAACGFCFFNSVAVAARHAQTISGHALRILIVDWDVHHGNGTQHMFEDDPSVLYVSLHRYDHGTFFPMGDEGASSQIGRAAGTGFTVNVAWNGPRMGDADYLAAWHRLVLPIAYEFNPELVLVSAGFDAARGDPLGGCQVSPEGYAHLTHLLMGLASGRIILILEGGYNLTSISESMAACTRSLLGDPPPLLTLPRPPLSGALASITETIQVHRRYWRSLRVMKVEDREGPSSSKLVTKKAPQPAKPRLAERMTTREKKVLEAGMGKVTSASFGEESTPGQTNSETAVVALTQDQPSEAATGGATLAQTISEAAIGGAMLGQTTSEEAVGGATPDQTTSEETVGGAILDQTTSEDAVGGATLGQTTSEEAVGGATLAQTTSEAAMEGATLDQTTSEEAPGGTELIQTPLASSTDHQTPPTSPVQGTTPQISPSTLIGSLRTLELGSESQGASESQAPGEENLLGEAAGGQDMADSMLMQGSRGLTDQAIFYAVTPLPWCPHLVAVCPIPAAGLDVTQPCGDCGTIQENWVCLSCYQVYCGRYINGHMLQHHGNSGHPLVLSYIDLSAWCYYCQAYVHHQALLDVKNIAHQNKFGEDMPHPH
The experiment can be described thus: HDAC6 Enzyme Assay. In kind it is biochemical. As to conditions: bin: greater than 500 nM and less than 1 μM (lower bound in nM, upper bound in μM). Put shortly:
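Purified human HDAC6 incubated 1 h at 30 °C with Ac-Arg-Gly-Lys(Ac)-AMC and compound; trichostatin A stop, trypsin release of AMC, fluorescence Ex 340/Em 460 nm. IC50 from concentration–response relative to DMSO.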
With `Cc1cc(C)c(CC(=O)NC(c2ccc(C(=O)NO)cc2)C(C)C)c(C)c1` (centres unmarked) [Compound I-28, N-hydroxy-4-{1-[(mesitylacetyl)amino]-2-methylpropyl}benzamide], the IC50 fell in the range of 500 to 1000 nM.

Still in this experiment, the particulars now being: bin: greater than 1 μM.
Regarding `CC(NC(=O)c1nc2ccccc2n1C)c1cccc(C(=O)NO)c1` (centres unmarked) [Compound I-100, N-(1-{3-[(hydroxyamino)carbonyl]phenyl}ethyl)-1-methyl-1H-benzimidazole-2-carboxamide], the IC50 is more than 1000 nM.
The same measure, in the same setting: with `C[C@@H](NC(=O)C(C)(C)C)c1cccc(C(=O)NO)c1` [Compound I-177, 3-{(1R)-1-[(2,2-dimethylpropanoyl)amino]ethyl}-N-hydroxybenzamide] the figure was more than 1000 nM; with `CC(NC(=O)c1cnccn1)c1cccc(C(=O)NO)c1` (centres unmarked) [Compound I-165, N-(1-{3-[(hydroxyamino)carbonyl]phenyl}ethyl)pyrazine-2-carboxamide], more than 1000 nM; with `Cc1c(C(=O)NC(c2cccc(C(=O)NO)c2)C(C)C)oc2ccccc12` (centres unmarked) [Compound I-93, N-(1-{3-[(hydroxyamino)carbonyl]phenyl}-2-methylpropyl)-3-methyl-1-benzofuran-2-carboxamide], more than 1000 nM.
As to `CC(NC(=O)C12CC3CC(CC(C3)C1)C2)c1cccc(C(=O)NO)c1` (centres unmarked) [Compound I-83, N-(1-{3-[(hydroxyamino)carbonyl]phenyl}ethyl)adamantane-1-carboxamide], the IC50 is more than 1000 nM.
For `CC(C)c1ccc(CC(=O)NC(C)c2ccc(C(=O)NO)cc2)cc1` (centres unmarked) [Compound I-285, N-hydroxy-4-(1-{[(4-isopropylphenyl)acetyl]amino}ethyl)benzamide], the IC50 was more than 1000 nM.
Still for that read-out and setting: with `C[C@@H](NC(=O)C1(C)CCCCC1)c1cccc(C(=O)NO)c1` [Compound I-283, N-hydroxy-3-((1R)-1-{[(1-methylcyclohexyl)carbonyl]amino}ethyl)benzamide] the figure was more than 1000 nM.

Still in this experiment, the particulars now being: purified human HDAC6, substrate Ac-Arg-Gly-Lys(Ac)-AMC, 1 hour at 30° C.; reported as bins.
`Cc1nc(C(=O)NC(c2ccc(C(=O)NO)cc2)C(C)(C)C)cs1` (centres unmarked) [Compound I-42, N-(1-{4-[(hydroxyamino)carbonyl]phenyl}-2,2-dimethylpropyl)-2-methyl-1,3-thiazole-4-carboxamide] showed an IC50 of 100 to 500 nM.
Still for that read-out and setting: then `CCC[C@@H](NC(=O)c1cc2oc(-c3ccccc3)cc2n1C)c1ccc(C(=O)NO)cc1` [Compound I-222, N-((1R)-1-{4-[(hydroxyamino)carbonyl]phenyl}butyl)-4-methyl-2-phenyl-4H-furo[3,2-b]pyrrole-5-carboxamide], with less than 100 nM; and `CC(NC(=O)Nc1ccccc1-c1ccccc1)c1ccc(C(=O)NO)cc1` (centres unmarked) [Compound I-384, 4-(1-{[(biphenyl-2-ylamino)carbonyl]amino}ethyl)-N-hydroxybenzamide], with less than 100 nM; and `CC(NC(=O)C1(C)CC1)c1ccc(C(=O)NO)cc1` (centres unmarked) [Compound I-154, N-hydroxy-4-(1-{[(1-methylcyclopropyl)carbonyl]amino}ethyl)benzamide], with less than 100 nM.
On the same count and under the same terms, then `Cn1ccc(C(=O)NC(c2ccc(C(=O)NO)cc2)C(C)(C)C)n1` (centres unmarked) [Compound I-66, N-(1-{4-[(hydroxyamino)carbonyl]phenyl}-2,2-dimethylpropyl)-1-methyl-1H-pyrazole-3-carboxamide], with 100 to 500 nM; and `CC(NC(=O)c1ccccc1)c1ccc(C(=O)NO)cc1` (centres unmarked) [Compound I-385, 4-[1-(benzoylamino)ethyl]-N-hydroxybenzamide], with less than 100 nM; and `CC(NC(=O)c1ccc2nsnc2c1)c1ccc(C(=O)NO)cc1` (centres unmarked) [Compound I-233, N-(1-{4-[(hydroxyamino)carbonyl]phenyl}ethyl)-2,1,3-benzothiadiazole-5-carboxamide], with less than 100 nM.
Still for that read-out and setting: with `CCC[C@@H](NC(=O)C(C)(C)C)c1ccc(C(=O)NO)cc1` [Compound I-365, 4-{(1R)-1-[(2,2-dimethylpropanoyl)amino]butyl}-N-hydroxybenzamide] the figure was less than 100 nM; with `CC(NC(=O)CCc1ccccc1)c1ccc(C(=O)NO)cc1` (centres unmarked) [Compound I-45, N-hydroxy-4-{1-[(3-phenylpropanoyl)amino]ethyl}benzamide], less than 100 nM.
Compound `C[C@@H](NC(=O)c1cc2ccccc2n1C)c1cccc(C(=O)NO)c1` [Compound I-330, N-((1R)-1-{3-[(hydroxyamino)carbonyl]phenyl}ethyl)-1-methyl-1H-indole-2-carboxamide] returned an IC50 of 100 to 500 nM.
On the same count and under the same terms, with `COc1cc(C(=O)NO)ccc1C(C)NC(=O)c1cc2ccccc2s1` (centres unmarked) [Compound I-480, N-(1-{4-[(hydroxyamino)carbonyl]-2-methoxyphenyl}ethyl)-1-benzothiophene-2-carboxamide] the figure was 100 to 500 nM; with `O=C(NO)c1ccc([C@H](NC(=O)C23CC4CC(CC(C4)C2)C3)C2CC2)cc1` [Compound I-46, N-((R)-cyclopropyl{4-[(hydroxyamino)carbonyl]phenyl}methyl)adamantane-1-carboxamide], 100 to 500 nM; with `CC(NC(=O)C1CCCC1)c1ccc(C(=O)NO)cc1` (centres unmarked) [Compound I-88, 4-{1-[(cyclopentylcarbonyl)amino]ethyl}-N-hydroxybenzamide], less than 100 nM.
The compound `CC(C)[C@@H](NC(=O)N[C@H](C)c1ccccc1)c1ccc(C(=O)NO)cc1` [Compound I-514, N-hydroxy-4-[(1R)-2-methyl-1-({[(1R)-1-phenylethyl]carbamoyl}amino)propyl]benzamide] showed an IC50 of less than 100 nM.
Still for that read-out and setting: then `CC(C)C(NC(=O)c1ccn(C)n1)c1ccc(C(=O)NO)cc1` (centres unmarked) [Compound I-389, N-(1-{4-[(hydroxyamino)carbonyl]phenyl}-2-methylpropyl)-1-methyl-1H-pyrazole-3-carboxamide], with less than 100 nM; and `Cc1ccc(NC(=O)NC(C)c2ccc(C(=O)NO)cc2)cc1F` (centres unmarked) [Compound I-120, 4-[1-({[(3-fluoro-4-methylphenyl)amino]carbonyl}amino)ethyl]-N-hydroxybenzamide], with less than 100 nM; and `O=C(NO)c1ccc([C@H](NC(=O)c2cc3ccccc3o2)C(F)(F)F)cc1` [Compound I-400, N-((1S)-2,2,2-trifluoro-1-{4-[(hydroxyamino)carbonyl]phenyl}ethyl)-1-benzofuran-2-carboxamide], with less than 100 nM.
The compound `CC(C)C(NC(=O)c1nc2ccccc2s1)c1ccc(C(=O)NO)cc1` (centres unmarked) [Compound I-191, N-(1-{4-[(hydroxyamino)carbonyl]phenyl}-2-methylpropyl)-1,3-benzothiazole-2-carboxamide] showed an IC50 of less than 100 nM.
Same read-out and setting: then `O=C(NO)c1ccc([C@H](NC(=O)c2cc3ccccc3s2)c2ccccc2)cc1` [Compound I-99, N-[(R)-{4-[(hydroxyamino)carbonyl]phenyl}(phenyl)methyl]-1-benzothiophene-2-carboxamide], with less than 100 nM.
On the same count and under the same terms, with `CC(C)[C@@H](NC(=O)c1cc2ccccc2o1)c1ccc(C(=O)NO)cc1` [Compound I-22, N-((1R)-1-{4-[(hydroxyamino)carbonyl]phenyl}-2-methylpropyl)-1-benzofuran-2-carboxamide] the figure was less than 100 nM.
The same measure, in the same setting: with `CC(NC(=O)Nc1ccc2c(c1)CCO2)c1ccc(C(=O)NO)cc1` (centres unmarked) [Compound I-148, 4-(1-{[(2,3-dihydro-1-benzofuran-5-ylamino)carbonyl]amino}ethyl)-N-hydroxybenzamide] the figure was less than 100 nM; with `CC(NC(=O)Nc1ccc(C(C)(C)C)cc1)c1ccc(C(=O)NO)cc1` (centres unmarked) [Compound I-140, 4-[1-({[(4-tert-butylphenyl)amino]carbonyl}amino)ethyl]-N-hydroxybenzamide], less than 100 nM; with `COc1ccc(C(=O)NC(c2ccc(C(=O)NO)cc2)C(C)C)cc1` (centres unmarked) [Compound I-346, N-(1-{4-[(hydroxyamino)carbonyl]phenyl}-2-methylpropyl)-4-methoxybenzamide], less than 100 nM.
Turning to `CC(C)[C@@H](NC(=O)NC(C)(C)C)c1ccc(C(=O)NO)cc1` [Compound I-368, 4-((1R)-1-{[(tert-butylamino)carbonyl]amino}-2-methylpropyl)-N-hydroxybenzamide], the IC50 was in the range of 100 to 500 nM.
